According to patent US9730447B2, “Fungicidal amides” (E I DU PONT DE NEMOURS AND COMPANY, priority 2013, dated 2017):

How the values were obtained:
Botrytis cinerea = experiment: Test A: preventive spray on tomato seedlings, Botrytis cinerea (gray mold), visual disease rating; type: in vivo; conditions: 96 h, 100 = 100% disease control, 0 = no control relative to controls, unmarked values
Outline: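 Tomato seedlings sprayed to run-off with 40 ppm or 10 ppm suspensions (160 or 40 g ai/ha) in acetone/water with 250 ppm surfactant. Inoculated with B. cinerea spores next day, held saturated at 20 °C for 48 h, then 27 °C for 2 days. Visual rating, 0–100% disease control relative to controls.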

In the case of `Cn1cc(C(=O)Nc2ccccc2-c2cnc(-n3ccc(C(F)(F)F)n3)cn2)c(C(F)F)n1` [Compound 2, 3-(difluoromethyl)-1-methyl-N-[2-[5-[3-(trifluoromethyl)-1H-pyrazol-1-yl]-2-pyrazinyl]phenyl]-1H-pyrazole-4-carboxamide], the pest or weed control at 40 µg/mL, 160 g/ha (Botrytis cinerea) is reported as 15% and the melting point is reported as 207 to 209 °C.
